# Test system: mutant Huntington (HTT) protein
# Test: HTT Mutant HTRF iPSC assay (mHTT protein lowering)
# Format: cell-based
# Details: human iPSC derived from a HTT patient with a poly-Q49 mutation
row,Structure (SMILES),IC50
1,"Cc1cn2nc(-c3cc(F)c4nc(N5CCC6(CCN(C)CC6)CC5)oc4c3)cc(C)c2n1 [Compound 515, 6-(2,8-dimethylimidazo[1,2-b]pyridazin-6-yl)-4-fluoro-2-(9-methyl-3,9-diazaspiro[5.5]undecan-3-yl)benzo[d]oxazole]",0.1 to 1 µM
2,"Cc1cn2nc(-c3cc(F)c4nc(C5CCN(C6CCC6)CC5)nn4c3)cc(C)c2n1 [Compound 437, 2-(1-cyclobutylpiperidin-4-yl)-6-(2,8-dimethylimidazo[1,2-b]pyridazin-6-yl)-8-fluoro-[1,2,4]triazolo[1,5-a]pyridine]",0.1 to 1 µM
3,Cc1cn2nc(-c3cc(F)c4nc(C56CC(N)(C5)C6)cn4c3)cc(C)c2n1 [Compound 91],< 0.1 µM
4,"Cc1cn2nc(-c3cc(F)c4nc(NC(=O)CC5CNC5)cn4c3)cc(C)c2n1 [Compound 281, 2-(azetidin-3-yl)-N-(6-(2,8-dimethylimidazo[1,2-b]pyridazin-6-yl)-8-fluoroimidazo[1,2-a]pyridin-2-yl)acetamide]",< 0.1 µM
5,"Cc1cn2nc(-c3cc(F)c4nc(N5CCC6(CCN(C)CC6)C5)oc4c3)cc(C(F)(F)F)c2n1 [Compound 520, 4-fluoro-6-(2-methyl-8-(trifluoromethyl)imidazo [1,2-b]pyridazin-6-yl)-2-(8-methyl-2,8-diazaspiro[4.5]decan-2-yl)benzo[d]oxazole]",< 0.1 µM
6,"Cc1nc2c(C)cc(-c3cc(F)c4nc([C@H]5[C@@H]6CN(C)C[C@@H]65)cn4c3)nn2n1 [Compound 227, 6-(8-fluoro-2-((1R,5S,6r)-3-methyl-3-azabicyclo[3.1.0]hexan-6-yl)imidazo[1,2-a]pyridin-6-yl)-2,8-dimethyl-[1,2,4]triazolo[1,5-b]pyridazine]",< 0.1 µM
7,"CCN1CCC(c2cn3cc(-c4ccc5nc(C)cn5c4)cc(F)c3n2)CC1 [Compound 8, 2-(1-ethylpiperidin-4-yl)-8-fluoro-2′-methyl-6,6′-biimidazo[1,2-a]pyridine]",1 to 9 µM
8,"Cc1cn2nc(-c3cc(F)c4nn(C5CCNCC5)nc4c3)cc2c(C)n1 [Compound 388, 6-(4,6-dimethylpyrazolo[1,5-a]pyrazin-2-yl)-4-fluoro-2-(piperidin-4-yl)-2H-benzo[d][1,2,3]triazole]",0.1 to 1 µM
9,"Cc1cn2cc(-c3cc(F)c4nc(C5CCNCC5)nn4c3)cc2c(C)n1 [Compound 431, 6-(1,3-dimethylpyrrolo[1,2-a]pyrazin-7-yl)-8-fluoro-2-(piperidin-4-yl)-[1,2,4]triazolo[1,5-a]pyridine]",0.1 to 1 µM
10,"Cc1cn2nc(-c3cc(F)c4nc(CC5CCN(C)CC5)oc4c3)cc(C)c2n1 [Compound 459, 6-(2,8-dimethylimidazo[1,2-b]pyridazin-6-yl)-4-fluoro-2-((1-methylpiperidin-4-yl)methyl)benzo[d] oxazole]",< 0.1 µM
11,"Cc1cc(-c2cc(F)c3nc([C@H]4[C@@H]5CN(C)C[C@@H]54)cn3c2)nn2cc(C(F)F)nc12 [Compound 228, 2-(difluoromethyl)-6-(8-fluoro-2-((1R,5S,6r)-3-methyl-3-azabicyclo[3.1.0]hexan-6-yl)imidazo[1,2-a]pyridin-6-yl)-8-methylimidazo[1,2-b]pyridazine]",0.1 to 1 µM
12,"Cc1cn2cc(-c3cc(F)c4nc(C5CCNCC5)cn4c3)nc(C)c2n1 [Compound 125, 6-(8-fluoro-2-(piperidin-4-yl)imidazo[1,2-a]pyridin-6-yl)-2,8-dimethylimidazo[1,2-a]pyrazine]",0.1 to 1 µM
13,"Cc1cn2nc(-c3cc(F)c4nc([C@H]5[C@@H]6CN(C7CC7)C[C@@H]65)cn4c3)cc(C)c2n1 [Compound 204, 6-(2-((1R,5S,6r)-3-cyclopropyl-3-azabicyclo[3.1.0]hexan-6-yl)-8-fluoroimidazo[1,2-a]pyridin-6-yl)-2,8-dimethylimidazo[1,2-b]pyridazine]",0.1 to 1 µM
14,Cn1cc2cc(-c3cc(F)c4nc(C56CCNC(C5)C6)cn4c3)cc(F)c2n1 [Compound 75],1 to 9 µM
15,"Cc1cn2nc(-c3cc(F)c4nc(C5CCN(CC(C)(C)C)CC5)nn4c3)cc(C)c2n1 [Compound 436, 6-(2,8-dimethylimidazo[1,2-b]pyridazin-6-yl)-8-fluoro-2-(1-neopentylpiperidin-4-yl)-[1,2,4]triazolo[1,5-a]pyridine]",0.1 to 1 µM
16,"CCN1CCC(c2cn3cc(-c4ccc5nn(C)cc5c4)cc(F)c3n2)CC1 [Compound 7, 5-(2-(1-ethylpiperidin-4-yl)-8-fluoroimidazo[1,2-a]pyridin-6-yl)-2-methyl-2H-indazole]",1 to 9 µM
17,"Cn1cc2cc(-c3cc(F)c4nc(C5CCNCC5)cn4c3)cc(C#N)c2n1 [Compound 85, 5-(8-fluoro-2-(piperidin-4-yl)imidazo[1,2-a]pyridin-6-yl)-2-methyl-2H-indazole-7-carbonitrile]",0.1 to 1 µM
18,"Cc1cn2nc(-c3cc(F)c4nc(C5CCN(C6CC6)CC5)cn4c3)ccc2n1 [Compound 106, 6-(2-(1-cyclopropylpiperidin-4-yl)-8-fluoroimidazo[1,2-a]pyridin-6-yl)-2-methylimidazo[1,2-b]pyridazine]",< 0.1 µM
19,"Cc1cn2nc(-c3cc(F)c4nc(N5CCC(CN(C)C)C5)oc4c3)cc(C)c2n1 (stereo not shown) [Compound 491, 1-(1-(6-(2,8-dimethylimidazo[1,2-b]pyridazin-6-yl)-4-fluorobenzo[d]oxazol-2-yl)pyrrolidin-3-yl)-N,N-dimethylmethanamine]",0.1 to 1 µM

row,Structure (SMILES),IC50
1,"CN[C@@H]1CCC[C@H](c2cn3cc(-c4cc(F)c5nn(C)cc5c4)cc(F)c3n2)C1 (stereo in doubt) [Compound 162, rel-(1R,3S)-3-(8-fluoro-6-(7-fluoro-2-methyl-2H-indazol-5-yl)imidazo[1,2-a]pyridin-2-yl)-N-methylcyclohexan-1-amine]",0.1 to 1 µM
2,"CC(C)N1CC(C(=O)Nc2cn3cc(-c4cc(F)c5nn(C)cc5c4)cc(F)c3n2)C1 [Compound 291, N-(8-fluoro-6-(7-fluoro-2-methyl-2H-indazol-5-yl)imidazo[1,2-a]pyridin-2-yl)-1-isopropylazetidine-3-carboxamide]",0.1 to 1 µM
3,"Cc1cn2nc(-c3cc(F)c4nc(NC(=O)[C@H]5[C@@H]6CN(C)C[C@@H]65)cn4c3)cc(C)c2n1 [Compound 262, (1R,5S,6r)-N-(6-(2,8-dimethylimidazo[1,2-b]pyridazin-6-yl)-8-fluoroimidazo[1,2-a]pyridin-2-yl)-3-methyl-3-azabicyclo[3.1.0]hexane-6-carboxamide]",< 0.1 µM
4,"Cc1cn2nc(-c3cc(F)c4nc([C@@H]5CCNC6(CC6)C5)cn4c3)cc(C)c2n1 (single isomer, unassigned) [Compound 179]",0.1 to 1 µM
5,"CNC1CCC(n2cc3cc(-c4cc(C)c5nc(C)cn5n4)cc(F)c3n2)CC1 (stereo not shown) [Compound 368, 4-(5-(2,8-dimethylimidazo[1,2-b]pyridazin-6-yl)-7-fluoro-2H-indazol-2-yl)-N-methylcyclohexan-1-amine]",0.1 to 1 µM
6,"Cc1cn2nc(-c3cc(F)c4nc(NC(=O)C5CCCN(C)C5)nn4c3)cc(C)c2n1 (single isomer, unassigned) [Compound 326]",0.1 to 1 µM
7,"Cn1nc2cc(-c3cc(F)c4[nH]c(C5CCNCC5)nc4c3)cc(F)c2n1 [Compound 148, 4-fluoro-6-(7-fluoro-2-(piperidin-4-yl)-1H-benzo[d]imidazol-5-yl)-2-methyl-2H-benzo[d][1,2,3]triazole]",0.1 to 1 µM
8,"Cc1cn2nc(-c3cc(F)c4nc(N5CCC6(CCN(C)C6)CC5)oc4c3)cc(C)c2n1 [Compound 470, 6-(2,8-dimethylimidazo[1,2-b]pyridazin-6-yl)-4-fluoro-2-(2-methyl-2,8-diazaspiro[4.5]decan-8-yl)benzo[d]oxazole]",< 0.1 µM
9,"Cc1cn2nc(-c3cc(F)c4[nH]c(C5CCNCC5)nc4c3)cc(C)c2n1 [Compound 140, 6-(7-fluoro-2-(piperidin-4-yl)-1H-benzo[d]imidazol-5-yl)-2,8-dimethylimidazo[1,2-b]pyridazine]",< 0.1 µM
10,"Cc1cn2cc(-c3cc(F)c4[nH]c(C5CCNCC5)nc4c3)cc(F)c2n1 [Compound 143, 7-fluoro-5-(8-fluoro-2-methylimidazo[1,2-a]pyridin-6-yl)-2-(piperidin-4-yl)-1H-benzo[d]imidazole]",1 to 9 µM
11,"Cc1cn2nc(-c3cc(F)c4nc(C5CCNCC5)cn4c3)ccc2n1 [Compound 2, 6-(8-fluoro-2-(piperidin-4-yl)imidazo[1,2-a]pyridin-6-yl)-2-methylimidazo[1,2-b]pyridazine]",< 0.1 µM
12,"Cc1nc2c(F)cc(-c3cc(F)c4nc(C5CCNCC5)cn4c3)cc2s1 [Compound 90, 4-fluoro-6-(8-fluoro-2-(piperidin-4-yl)imidazo[1,2-a]pyridin-6-yl)-2-methylbenzo[d]thiazole]",1 to 9 µM
13,"Cc1cn2nc(-c3cc(F)c4nc(N(C)C5CCN(C)C(C)C5)oc4c3)cc(C)c2n1 (stereo not shown) [Compound 473, 6-(2,8-dimethylimidazo[1,2-b]pyridazin-6-yl)-N-(1,2-dimethylpiperidin-4-yl)-4-fluoro-N-methylbenzo[d]oxazol-2-amine]",0.1 to 1 µM
14,"Cc1cn2cc(-c3cc(F)c4nc(C5CCNCC5)cn4c3)cc2c(C)n1 [Compound 31, 6-(1,3-dimethylpyrrolo[1,2-a]pyrazin-7-yl)-8-fluoro-2-(piperidin-4-yl)imidazo[1,2-a]pyridine]",< 0.1 µM
15,"Cc1cn2nc(-c3cc(F)c4nc(C56CCC(N)(CC5)CC6)cn4c3)cc(C)c2n1 [Compound 108, 4-(6-(2,8-dimethylimidazo[1,2-b]pyridazin-6-yl)-8-fluoroimidazo[1,2-a]pyridin-2-yl)bicyclo[2.2.2]octan-1-amine]",< 0.1 µM
16,"Cc1cn2nc(-c3cc(F)c4nc(C(=O)NCC5CCCN5C)cn4c3)cc(C)c2n1 (stereo not shown) [Compound 334, 6-(2,8-dimethylimidazo[1,2-b]pyridazin-6-yl)-8-fluoro-N-((1-methylpyrrolidin-2-yl)methyl)imidazo[1,2-a]pyridine-2-carboxamide]",0.1 to 1 µM
17,"Cc1cn2nc(-c3cc(F)c4nc(NC(=O)C5CN(C(C)C)C5)nn4c3)cc(C)c2n1 [Compound 324, N-[6-(2,8-dimethylimidazo[1,2-b]pyridazin-6-yl)-8-fluoro-[1,2,4]triazolo[1,5-a]pyridin-2-yl]-1-isopropyl-azetidine-3-carboxamide]",1 to 9 µM
18,"Fc1cc(-c2ccc3nc(C(F)F)cn3n2)cc2cn(C3CCNCC3)nc12 [Compound 352, 2-(difluoromethyl)-6-(7-fluoro-2-(piperidin-4-yl)-2H-indazol-5-yl)imidazo[1,2-b]pyridazine]",1 to 9 µM

# Reference: patent US20250353841A1 (BIOGEN MA INC., priority 2022, published 2025)
